According to patent publication US20170190671A1, “BIS(ARYL)CATECHOL DERIVATIVES AS HERBICIDES” (E I DU PONT DE NEMOURS AND COMPANY, priority 2014, published 2017):

Legend:
Format in all cases: in vivo
[1] = system: giant foxtail (Setaria faberii); experiment: Test C preemergence; conditions: Setaria faberi, pre-emergence, 336 h, scale 0 to 100, read-out: Plant response rating, Foxtail, Giant
Procedure, shortened: (§1)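 After preemergence treatment of seeds in loam-sand soil or foliar treatment at the 1- to 4-leaf stage of plants in peat/vermiculite medium, pots were kept 13-15 days in the greenhouse. Each was then scored visually, 0 meaning no effect and 100 complete control.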

[2] = system: large (Lg) crabgrass (Digitaria sanguinalis); experiment: Test C preemergence; conditions: Digitaria sanguinalis, pre-emergence, 336 h, scale 0 to 100, read-out: Plant response rating, Crabgrass, Large
Procedure, shortened: as §1

[3] = system: oilseed rape (Brassica napus); experiment: Test C preemergence; conditions: Brassica napus, pre-emergence, scale 0 to 100, read-out: Plant response rating, Oilseed Rape
Procedure, shortened: as §1

[4] = system: winter wheat (Triticum aestivum); experiment: Test C preemergence; conditions: Triticum aestivum, pre-emergence, 336 h, scale 0 to 100, read-out: Plant response rating, Wheat
Procedure, shortened: as §1

[5] = system: Italian ryegrass (Lolium multiflorum); experiment: Test C postemergence; conditions: Lolium multiflorum, post-emergence, 336 h, Postemergence, scale 0 to 100, read-out: Plant response rating, Ryegrass, Italian
Procedure, shortened: as §1

[6] = system: barnyardgrass (Echinochloa crus-galli); experiment: Test C postemergence; conditions: Echinochloa crus-galli, post-emergence, Postemergence, scale 0 to 100, read-out: Plant response rating, Barnyardgrass
Procedure, shortened: as §1

[7] = system: blackgrass (Alopecurus myosuroides); experiment: Test C postemergence; conditions: Alopecurus myosuroides, post-emergence, 336 h, Postemergence, scale 0 to 100, read-out: Plant response rating, Blackgrass
Procedure, shortened: as §1

[8] = system: chickweed (common chickweed, Stellaria media); experiment: Test C postemergence; conditions: Stellaria media, post-emergence, Postemergence, scale 0 to 100, read-out: Plant response rating, Chickweed
Procedure, shortened: as §1

corn (Zea mays) = experiment: Test C postemergence; conditions: Zea mays, post-emergence, 336 h, Postemergence, scale 0 to 100
Procedure, shortened: as §1

[9] = system: galium (catchweed bedstraw, Galium aparine); experiment: Test C postemergence; conditions: Galium, post-emergence, 336 h, Postemergence, scale 0 to 100, read-out: Plant response rating, Galium
Procedure, shortened: as §1

[10] = system: giant foxtail (Setaria faberii); experiment: Test C postemergence; conditions: Setaria faberi, post-emergence, 336 h, Postemergence, scale 0 to 100, read-out: Plant response rating, Foxtail, Giant
Procedure, shortened: as §1

[11] = system: johnsongrass (Sorghum halepense); experiment: Test C postemergence; conditions: Sorghum halepense, post-emergence, 336 h, Postemergence, scale 0 to 100, read-out: Plant response rating, Johnsongrass
Procedure, shortened: as §1

[12] = system: lambsquarters (Chenopodium album); experiment: Test C postemergence; conditions: Chenopodium album, post-emergence, 336 h, Postemergence, scale 0 to 100, read-out: Plant response rating, Lambsquarters
Procedure, shortened: as §1

[13] = system: large (Lg) crabgrass (Digitaria sanguinalis); experiment: Test C postemergence; conditions: Digitaria sanguinalis, post-emergence, 336 h, Postemergence, scale 0 to 100, read-out: Plant response rating, Crabgrass, Large
Procedure, shortened: as §1

[14] = system: morningglory (Ipomoea coccinea); experiment: Test C postemergence; conditions: Ipomoea, post-emergence, 336 h, Postemergence, scale 0 to 100, read-out: Plant response rating, Morningglory
Procedure, shortened: as §1

[15] = system: oilseed rape (Brassica napus); experiment: Test C postemergence; conditions: Brassica napus, post-emergence, Postemergence, scale 0 to 100, read-out: Plant response rating, Oilseed Rape
Procedure, shortened: as §1

[16] = system: pigweed (Amaranthus retroflexus); experiment: Test C postemergence; conditions: Amaranthus retroflexus, post-emergence, 336 h, Postemergence, scale 0 to 100, read-out: Plant response rating, Pigweed
Procedure, shortened: as §1

[17] = system: ragweed (common ragweed, Ambrosia elatior); experiment: Test C postemergence; conditions: Ambrosia artemisiifolia, post-emergence, 336 h, Postemergence, scale 0 to 100, read-out: Plant response rating, Ragweed
Procedure, shortened: as §1

soybean (Glycine max) = experiment: Test C postemergence; conditions: Glycine max, post-emergence, Postemergence, scale 0 to 100, read-out: Plant response rating, Soybean
Procedure, shortened: as §1

[18] = system: velvetleaf (Abutilon theophrasti); experiment: Test C postemergence; conditions: Abutilon theophrasti, post-emergence, Postemergence, scale 0 to 100, read-out: Plant response rating, Velvetleaf
Procedure, shortened: as §1

[19] = system: winter wheat (Triticum aestivum); experiment: Test C postemergence; conditions: Triticum aestivum, post-emergence, 336 h, Postemergence, scale 0 to 100, read-out: Plant response rating, Wheat
Procedure, shortened: as §1

[20] = system: yellow nutsedge (Cyperus esculentus); experiment: Test C postemergence; conditions: Cyperus, post-emergence, 336 h, Postemergence, scale 0 to 100, read-out: Plant response rating, Nutsedge, Yellow
Procedure, shortened: as §1

SMILES: Fc1cccc(Oc2ncc(C(F)(F)F)cn2)c1Oc1ncc(Cl)cn1 [Compound 42, 5-chloro-2-[2-fluoro-6-[[5-(trifluoromethyl)-2-pyrimidinyl]oxy]phenoxy]pyrimidine]
- pest or weed control at 31 g/ha ([1]; 31 g ai/ha, preemergence): 100%
- pest or weed control at 62 g/ha ([1]; 62 g ai/ha, preemergence): 100%
- pest or weed control at 125 g/ha ([1]; 125 g ai/ha, preemergence): 100%
- pest or weed control at 16 g/ha ([1]; Preemergence, 16 g ai/ha): 85%
- pest or weed control at 31 g/ha ([2]; 31 g ai/ha, preemergence): 100%
- pest or weed control at 62 g/ha ([2]; 62 g ai/ha, preemergence): 100%
- pest or weed control at 125 g/ha ([2]; 125 g ai/ha, preemergence): 100%
- pest or weed control at 16 g/ha ([2]; Preemergence, 16 g ai/ha): 100%
- plant injury at 31 g/ha ([3]; 31 g ai/ha, preemergence): 100%
- plant injury at 62 g/ha ([3]; 62 g ai/ha, preemergence): 100%
- plant injury at 125 g/ha ([3]; 125 g ai/ha, preemergence): 100%
- plant injury at 16 g/ha ([3]; Preemergence, 16 g ai/ha): 98%
- plant injury at 31 g/ha ([4]; 31 g ai/ha, preemergence): 30%
- plant injury at 62 g/ha ([4]; 62 g ai/ha, preemergence): 45%
- plant injury at 125 g/ha ([4]; 125 g ai/ha, preemergence): 90%
- plant injury at 16 g/ha ([4]; Preemergence, 16 g ai/ha): 0%
- pest or weed control at 31 g/ha ([5]; 31 g ai/ha): 0%
- pest or weed control at 62 g/ha ([5]; 62 g ai/ha): 10%
- pest or weed control at 125 g/ha ([5]; 125 g ai/ha): 35%
- pest or weed control at 16 g/ha ([6]; 16 g ai/ha): 5%
- pest or weed control at 31 g/ha ([6]; 31 g ai/ha): 5%
- pest or weed control at 62 g/ha ([6]; 62 g ai/ha): 10%
- pest or weed control at 125 g/ha ([6]; 125 g ai/ha): 20%
- pest or weed control at 16 g/ha ([7]; 16 g ai/ha): 10%
- pest or weed control at 31 g/ha ([7]; 31 g ai/ha): 20%
- pest or weed control at 62 g/ha ([7]; 62 g ai/ha): 20%
- pest or weed control at 125 g/ha ([7]; 125 g ai/ha): 80%
- pest or weed control at 16 g/ha ([8]; 16 g ai/ha): 20%
- pest or weed control at 31 g/ha ([8]; 31 g ai/ha): 90%
- pest or weed control at 62 g/ha ([8]; 62 g ai/ha): 95%
- pest or weed control at 125 g/ha ([8]; 125 g ai/ha): 95%
- Corn plant response rating (crop injury, 0 = no effect, 100 = complete kill) at 16 g/ha (corn (Zea mays); 16 g ai/ha): 5%
- Corn plant response rating (crop injury, 0 = no effect, 100 = complete kill) at 31 g/ha (corn (Zea mays); 31 g ai/ha): 5%
- Corn plant response rating (crop injury, 0 = no effect, 100 = complete kill) at 62 g/ha (corn (Zea mays); 62 g ai/ha): 10%
- Corn plant response rating (crop injury, 0 = no effect, 100 = complete kill) at 125 g/ha (corn (Zea mays); 125 g ai/ha): 25%
- pest or weed control at 16 g/ha ([9]; 16 g ai/ha): 75%
- pest or weed control at 31 g/ha ([9]; 31 g ai/ha): 98%
- pest or weed control at 62 g/ha ([9]; 62 g ai/ha): 100%
- pest or weed control at 125 g/ha ([9]; 125 g ai/ha): 100%
- pest or weed control at 16 g/ha ([10]; 16 g ai/ha): 30%
- pest or weed control at 31 g/ha ([10]; 31 g ai/ha): 30%
- pest or weed control at 62 g/ha ([10]; 62 g ai/ha): 35%
- pest or weed control at 125 g/ha ([10]; 125 g ai/ha): 35%
- pest or weed control at 16 g/ha ([11]; 16 g ai/ha): 10%
- pest or weed control at 31 g/ha ([11]; 31 g ai/ha): 10%
- pest or weed control at 62 g/ha ([11]; 62 g ai/ha): 10%
- pest or weed control at 125 g/ha ([11]; 125 g ai/ha): 40%
- pest or weed control at 16 g/ha ([12]; 16 g ai/ha): 80%
- pest or weed control at 31 g/ha ([12]; 31 g ai/ha): 80%
- pest or weed control at 62 g/ha ([12]; 62 g ai/ha): 90%
- pest or weed control at 125 g/ha ([12]; 125 g ai/ha): 95%
- pest or weed control at 16 g/ha ([13]; 16 g ai/ha): 10%
- pest or weed control at 31 g/ha ([13]; 31 g ai/ha): 20%
- pest or weed control at 62 g/ha ([13]; 62 g ai/ha): 15%
- pest or weed control at 125 g/ha ([13]; 125 g ai/ha): 40%
- pest or weed control at 31 g/ha ([14]; 31 g ai/ha): 70%
- pest or weed control at 62 g/ha ([14]; 62 g ai/ha): 75%
- pest or weed control at 125 g/ha ([14]; 125 g ai/ha): 85%
- plant injury at 31 g/ha ([15]; 31 g ai/ha): 50%
- plant injury at 62 g/ha ([15]; 62 g ai/ha): 70%
- plant injury at 125 g/ha ([15]; 125 g ai/ha): 85%
- pest or weed control at 31 g/ha ([16]; 31 g ai/ha): 90%
- pest or weed control at 62 g/ha ([16]; 62 g ai/ha): 98%
- pest or weed control at 125 g/ha ([16]; 125 g ai/ha): 98%
- pest or weed control at 31 g/ha ([17]; 31 g ai/ha): 65%
- pest or weed control at 62 g/ha ([17]; 62 g ai/ha): 70%
- pest or weed control at 125 g/ha ([17]; 125 g ai/ha): 65%
- plant injury at 31 g/ha (soybean (Glycine max); 31 g ai/ha): 55%
- plant injury at 62 g/ha (soybean (Glycine max); 62 g ai/ha): 65%
- plant injury at 125 g/ha (soybean (Glycine max); 125 g ai/ha): 85%
- pest or weed control at 31 g/ha ([18]; 31 g ai/ha): 60%
- pest or weed control at 62 g/ha ([18]; 62 g ai/ha): 70%
- pest or weed control at 125 g/ha ([18]; 125 g ai/ha): 85%
- plant injury at 31 g/ha ([19]; 31 g ai/ha): 0%
- plant injury at 62 g/ha ([19]; 62 g ai/ha): 0%
- plant injury at 125 g/ha ([19]; 125 g ai/ha): 10%
- pest or weed control at 31 g/ha ([20]; 31 g ai/ha): 0%
- pest or weed control at 62 g/ha ([20]; 62 g ai/ha): 5%
- pest or weed control at 125 g/ha ([20]; 125 g ai/ha): 5%
